Results from US20060205771A1, “Caspase inhibitors as anticancer agents” (priority 2002, published 2006).
*: point of attachment. Cbz = O=C(OCc1ccccc1)*; CH2F = FC*

What was measured:
normal astrocytes = test: BCNU cytotoxicity on normal astrocytes; assay type: cell-based; details: agent alone, FIG. 8
Procedure: (§1) A variety of cells were exposed to BCNU (also known as carmustine) in the presence of a variety of caspase inhibitors. This alkylating agent is frequently employed in the treatment of cancers of the central nervous system, as well as for treatment of certain lymphomas. The growth of tumor cells and normal human brain precursor cells in chemically-defined medium was assayed under various conditions of alkylating agent and/or caspase inhibitor. Cells were exposed to BCNU at varying dosages, depending upon the outcome of characterization of their sensitivity to BCNU. In general, dosages were employed for which it would be possible to recognize protection from the cytotoxic effects of this alkylating agent, as well as to recognize increased anticancer activity depending on the conditions, of for example, the caspase inhibitor and the activity of this compound.

[1] = test system: UT-9 astrocytoma cell line; test: survival of UT-9 astrocytoma cell line (MTT/DAPI count); assay type: cell-based; details: BCNU alone at doses equivalent to those used for 1789 and UT-12, FIG. 5
Procedure: as §1
(§2) After 24 hours, cells were pretreated for 1 hour with caspase inhibitors at a concentration of 20 microM, following exposure to BCNU for 1 hour at concentrations that would kill approximately 50% of the tumor cells, as determined by dose-response experiments. In general, the BCNU concentration applied ranged from 5 microg/ml to 20 microg/ml. Exposure periods were based upon the known clearance rate of BCNU in vivo. […] Percentages of cell survival were normalized to controls. All experiments were performed at least as quadruplicates. […]

NIH3T3 cells = details: cited from earlier work
[2] = test system: UT-12 glioblastoma cell line; test: survival of UT-12 glioblastoma cell line (MTT/DAPI count); assay type: cell-based; details: UT-12 glioma cells; FIG. 6
Procedure: as §1, §2

SW480 colon cancer cells = test: cisplatin-induced death of SW480 colon cancer cells; assay type: cell-based; details: cisplatin alone, FIG. 10
Caspase-1 = target: T1, Caspase-1 (Homo sapiens, UniProt P29466); details: cited from earlier work
T1 sequence (P29466 120-297 limits assumed): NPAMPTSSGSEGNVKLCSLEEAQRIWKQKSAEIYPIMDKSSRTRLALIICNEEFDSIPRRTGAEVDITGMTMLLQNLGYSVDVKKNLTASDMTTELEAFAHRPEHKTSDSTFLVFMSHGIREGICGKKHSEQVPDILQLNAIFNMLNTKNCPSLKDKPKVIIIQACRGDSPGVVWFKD
T1 sequence (P29466 317-404 limits assumed): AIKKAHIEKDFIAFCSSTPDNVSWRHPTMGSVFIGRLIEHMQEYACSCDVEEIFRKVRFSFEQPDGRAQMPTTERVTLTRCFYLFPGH

human liver cells = details: cited from earlier work
[3] = test system: SW480 (colon adenocarcinoma); details: SW480 cell line; cited from earlier work
[4] = test system: H460 (non-small cell lung cancer); details: H460 cell line; cited from earlier work
caspase-3 = target: T2, caspase-3 (Homo sapiens, UniProt P42574); details: cited from earlier work
T2 sequence (P42574 29-175 limits assumed): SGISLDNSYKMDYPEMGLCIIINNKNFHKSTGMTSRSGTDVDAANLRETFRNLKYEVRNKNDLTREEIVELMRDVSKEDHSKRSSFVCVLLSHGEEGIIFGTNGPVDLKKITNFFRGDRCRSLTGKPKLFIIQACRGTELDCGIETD
T2 sequence (P42574 176-277 limits assumed): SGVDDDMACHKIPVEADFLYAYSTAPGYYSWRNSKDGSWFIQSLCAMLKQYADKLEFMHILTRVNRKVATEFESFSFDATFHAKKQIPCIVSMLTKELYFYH

## O=NN(CCCl)C(=O)NCCCl [BCNU, carmustine]
Normal astrocytes
  killing of astrocytes: Astrocytes were killed by BCNU
[1]
  reduction in cell number: causes only a minor reduction in cell number

## COc1ccc(O)c(C(C)(C)C)c1 [BHA, butylated hydroxyanisole]
NIH3T3 cells; pretreatment, Luschen et al.
  protection from cytotoxicity of tumor necrosis factor plus caspase-8 inhibition: protected NIH3T3 cells from cytotoxicity induced by the combination of tumor necrosis factor and caspase-8 inhibition

## O=C1O[C@H]([C@@H](O)CO)C(O)=C1O [Vitamin C, ascoribic acid]
[2]
  cell killing by the full combination (caspase 9 and pan-caspase inhibition, BCNU, Vitamin C): kills all of the UT-12 glioma cells

## N.N.[Cl][Pt][Cl] [cisplatin, Cisplatin]
SW480 colon cancer cells
  cell death / reduction in number of cells: cisplatin-induced death

## Ac-YVAD-CHO
Caspase-1
  inhibition of Caspase-1: strong inhibitor of Caspase-1

## Cbz-LEHD-CH2F
Human liver cells
  protection from TRAIL-associated toxicity: effectively protects liver cells from TRAIL-associated toxicity
[3]
  protection from TRAIL induced death: did not protect
[4]
  protection from TRAIL induced death: did not protect

## TRAIL: tumor necrosis factor-related apoptosis-inducing ligand
Human liver cells
  induction of cell death: induces cell death in human liver cells by a caspase-9 dependent mechanism

## c-DEVD-CHO
caspase-3
  inhibition of caspase-3: inhibits preferentially (but not specifically) caspase-3

## zVAD.fmk
NIH3T3 cells; Luschen et al, 2000
  sensitization to the action of TNF: Sensitization to the action of TNF
